# In US20250171511A1, “ANTIVIRAL PEPTIDES AND METHODS OF USE THEREOF” (Versitech Limited, priority 2021, published 2025):
# Like-named read-outs stand apart in the source and are kept apart here. Where no end group is shown, it is not given here. 4MPA = not defined here
# Tests used:
# [1] = system: spike-ACE2 mediated fusion; assay type: cell-based; conditions: endocytosis pathway
# [2] = system: SARS-CoV-2; assay type: cell-based
# [3] = ELISA binding of 4H30 to heparan sulfate; conditions: compared with BSA
# [4] = system: H1N1 virus; assay: H1N1 plaque reduction assay; assay type: cell-based; conditions: virus treated in PBS 30 min, VeroE6
# [5] = system: SARS-CoV-2 (B.1.163); assay: Post-exposure antiviral activity in hamsters, B.1.163; conditions: hamster, in vivo
# [6] = system: SARS-CoV-2; assay: Plaque reduction assay against SARS-CoV-2; assay type: cell-based
# Experimental: Briefly, peptides were dissolved in PBS or 30mM phosphate buffer (PBS/5) containing 24.6 mM Na2HPO4 and 5.6 mM KH2PO4 at a pH of 7.4. Peptides or bovine serum albumin (BSA, 0.2-25.0 μg ml^−1) were premixed with SARS-CoV-2 at room temperature. After 45-60 min of incubation, peptide-virus mixture was transferred to Vero-E6 cells, correspondingly. At 1 h post infection, infectious media were removed, and 1% low melting agar was added to cells. Cells were fixed using 4% formalin at 2-3 day post infection. […] (0.1%) was added for staining, and the number of plaques was counted.
substance,measurement,setting,value
GAICHPVFCPRRYKQIGTCGLPGTKCCKKP-4MPA (cysteine pairing not given here; reading uncertain; also: printed as GAICHPVFCPRRYKQIGTCGLPGTKCCKKP-4MPA) [Peptide 4H30],spike-ACE2 mediated cell fusion,[1],blocking of spike-ACE2 mediated fusion
same,attachment of SARS-CoV-2 to cells,[2]; 4H30 pretreated by GAGs,significantly reduced
same,attachment of SARS-CoV-2 to cells,[2]; A549 (ACE2^−) cells treated by 4H30,significantly increased
same,attachment of SARS-CoV-2 to cells,[2]; Calu-3 (ACE2^+) cells treated by 4H30,significantly increased
same,attachment of SARS-CoV-2 to cells,[2]; cells pretreated by Chondroitinase ABC and Heparinase,significantly reduced
same,binding to heparan sulfate (HS),[3],effectively bind
same,H1N1 virus replication,[4],significantly inhibited
same,SARS-CoV-2 replication in lungs,[5],significantly inhibit
same,IC50,"[6]; virus premixed with peptide in PBS, plaque reduction",0.59 µg/mL
same,SARS-CoV-2 infection after dilution of treated virus,"[6]; virus pretreated by 50 μg ml^−1, then 10,000-fold diluted (0.005 μg ml^−1)",significantly inhibited SARS-CoV-2 infection
